Ends that are not written are not given here.
Legend:
Format in all cases: cell-based
[1] = system: HEL cell binding to human ICAM-4Fc; assay: Cell adhesion assay: peptide inhibition of HEL cell binding to human ICAM-4Fc; conditions: for input cells bound expressed as a percentage of binding to ICAM-4Fc in the absence of peptides: FIG. 8, human ICAM-4Fc coated at 5 μg/ml, peptides 500 μM each, mean of three assays; for input cells bound expressed as a percentage of binding to human ICAM-4Fc in the absence of peptides: FIG. 16, human ICAM-4Fc coated at 2.5 μg/ml, peptides 750 μM each, EDTA 2 mM, mean of two assays
Protocol: (§1) Cell adhesion assays were performed as described in Spring et al. 2001 (supra). Immulon4 96 well plates (Dynex Technologies, Billingshurst, United Kingdom) were coated with 1 μg/well goat-antihuman-Fc (Sigma, Poole, United Kingdom) for 24 hours at 4° C., washed three times with PBS and coated with an Fc fusion ICAM-4 protein for 18 hours at 4° C. before blocking with 0.4% BSA PBS for 2 hours at 22° C. Cells were labelled with 10 μg/ml 2′,7′-bis-(2-carboxyethyl)-5-(and-6-) carboxyfluorescein acetoxymethyl ester in assay buffer (IMEM, 2 mM EGTA, 10 μg/ml human ivIgG) for 15 minutes at 37° C. HT1080 cells were activated with 80 μM phorbol myristate acetate prior to both cells being washed with assay buffer containing 2 mM Mn^2+. Cells, at 5×10^4 cells per well, were added to the ICAM-4Fc-coated plates for 30 minutes at 37° C., prior to being given repeated washes in assay buffer and read on a fluorescence microplate reader (excitation 485 nm, emission 530 nm). The percentage of bound cells was calculated after each wash. […] In peptide inhibition studies the appropriate ICAM-4Fc coating concentration for each cell line was pre-determined by titration of ICAM-4Fc and the lowest concentration at which maximal binding was achieved was used to coat the plates

[2] = system: HT1080 cell binding to human ICAM-4Fc; assay: Cell adhesion assay: peptide inhibition of HT1080 cell binding to human ICAM-4Fc
Protocol: as §1

[3] = system: HEL cell binding to murine ICAM-4Fc; assay: Cell adhesion assay: peptide inhibition of HEL cell binding to murine ICAM-4Fc; conditions: FIG. 12, murine ICAM-4Fc coated at 5 μg/ml, peptides 500 μM each, mean of two assays
Protocol: Cell adhesion assays were performed as described in Spring et al. 2001 (supra). Immulon4 96 well plates (Dynex Technologies, Billingshurst, United Kingdom) were coated with 1 μg/well goat-antihuman-Fc (Sigma, Poole, United Kingdom) for 24 hours at 4° C., washed three times with PBS and coated with an Fc fusion ICAM-4 protein for 18 hours at 4° C. before blocking with 0.4% BSA PBS for 2 hours at 22° C. Cells were labelled with 10 μg/ml 2′,7′-bis-(2-carboxyethyl)-5-(and-6-) carboxyfluorescein acetoxymethyl ester in assay buffer (IMEM, 2 mM EGTA, 10 μg/ml human ivIgG) for 15 minutes at 37° C. HT1080 cells were activated with 80 μM phorbol myristate acetate prior to both cells being washed with assay buffer containing 2 mM Mn^2+. Cells, at 5×10^4 cells per well, were added to the ICAM-4Fc-coated plates for 30 minutes at 37° C., prior to being given repeated washes in assay buffer and read on a fluorescence microplate reader (excitation 485 nm, emission 530 nm). The percentage of bound cells was calculated after each wash. Peptide inhibition was performed by incubating the cells with 500 μM peptide at 0° C. for 15 minutes ahead of their addition, still in the presence of 500 μM peptide to the ICAM-4Fc coated plates. In peptide inhibition studies the appropriate ICAM-4Fc coating concentration for each cell line was pre-determined by titration of ICAM-4Fc and the lowest concentration at which maximal binding was achieved was used to coat the plates

[4] = system: HT1080 cell binding to murine ICAM-4Fc; assay: Cell adhesion assay: peptide inhibition of HT1080 cell binding to murine ICAM-4Fc; conditions: FIG. 14, murine ICAM-4Fc coated at 5 μg/ml, peptides 500 μM each, mean of two assays
Protocol: as §1

[5] = system: erythroblast adhesion to ICAM-4; assay: Peptide inhibition of erythroblast adhesion to ICAM-4; conditions: FIG. 19; 5 μg/ml ICAM-4; 5 μg/ml TS2/16 beta 1 activating antibody; peptides 500 μM
Protocol: We have utilised the blocking ICAM-4 peptides (i.e., SEQ ID NOs: 9, 10, 11 and 13—see Example 1) in order to inhibit the adhesion of day 4 erythroblasts to ICAM-4 (see FIG. 19). Erythroblast cultures were initiated from CD34 positive cells purified from pooled buffy coat residues (obtained from the National Blood Service, Bristol, UK) and maintained as described in Southcott et al. (1999, Blood 93: 4425-4435). Cell adhesion assays were performed as described in Example 1 above. Immulon-4 96 well plates (Dynes Technologies, Billingshurst, UK) were coated with 1 μg/well goat-antihuman-Fc (Sigma, Poole, UK) for 24 hours at 4° C., washed three times with PBS and coated with 0.25 μg/well Fc fusion ICAM-4 protein (ICAM-4Fc) for 18 hours at 4° C. before blocking with 0.4% BSA PBS for 2 hours at 22° C. Erythroblasts were labelled with 10 μg/ml 2′,7′-bis-(2-carboxyethyl)-5-(and-6-)carboxyfluorescein acetoxymethyl ester (Sigma, Poole, UK) in assay buffer (Iscoves modified Eagle medium, 2 mM EGTA, 0.1% BSA, 10 μg/ml Immune globulin intravenous (human) (Cutter Biological, Newbury, Berks, UK)) for 15 minutes at 37° C. Erythroblasts were washed with assay buffer containing 2 mM Mn^2+. Erythroblasts, at 5×10^4 cells per well, were added to the ICAM-4Fc-coated plates for 30 minutes at 37° C., prior to being cyclically read on a fluorescence microplate reader (excitation 485 nm, emission 530 nm) and washed in assay buffer. The percentage of bound cells was calculated after each wash Peptide inhibition was performed by incubating the cells with 500 μM peptide and 5 μg/ml TS2/16 (beta 1 activating antibody (IBGRL) at 0° C. for 15 minutes before their addition to the ICAM-4Fc coated plates.

[6] = system: neutrophil adhesion to ICAM-4; assay: Peptide and antibody inhibition of neutrophil adhesion to ICAM-4; conditions: FIG. 20; 2.5 μg/ml ICAM-4; 10 μg/ml blocking antibodies; peptides 500 μM
Protocol: Utilising blocking β integrin subunit antibodies and our blocking ICAM-4 peptides (i.e., SEQ ID NOs: 9, 10, 11 and 13—see Example 1) in a microplate neutrophil adhesion assay. Neutrophils were purified from buffy coats (obtained from the National Blood Service, Bristol, UK) as described in Henderson et al. (1987, Biochem. J. 246: 325-329). Cell adhesion assays were performed as described in Example 1 above. Immulon-4 96 well plates (Dynes Technologies, Billingshurst, UK) were coated with 1 μg/well protein A (Sigma, Poole, UK) for 24 hours at 4° C., washed three times with PBS and coated with 0.125 μg/well Fc fusion ICAM-4 protein (ICAM-4Fc) for 18 hours at 4° C. before blocking with 0.4% BSA PBS for 2 hours at 22° C. Neutrophils were labelled with 10 μg/ml 2′,7′-bis-(2-carboxyethyl)-5-(and-6-)carboxyfluorescein acetoxymethyl ester (Sigma, Poole, UK) in assay buffer (Iscoves modified Eagle medium, 2 mM EGTA, 0.1% BSA for 15 minutes at 37° C. Neutrophils were washed with assay buffer containing 2 mM Mn^2+. Neutrophils, at 5×10^5 cells per well, were added to the ICAM-4Fc-coated plates for 10 minutes at 37° C., prior to being cyclically read on a fluorescence microplate reader (excitation 485 nm, emission 530 nm) and washed in assay buffer. The percentage of bound cells was calculated after each wash. […]

Compound | input cells bound expressed as a percentage of binding to ICAM-4Fc in the absence of peptides [1] | input cells bound expressed as a percentage of binding to human ICAM-4Fc in the absence of peptides [1] | input cells bound expressed as a percentage of binding to human ICAM4Fc in the absence of peptides ([2]; FIG. 10, human ICAM-4Fc coated at 7.5 μg/ml, peptides 500 μM each, mean of three assays) | input cells bound expressed as a percentage of binding to human ICAM-4Fc in the absence of peptides ([2]; FIG. 18, human ICAM-4Fc coated at 5 μg/ml, peptides 750 μM each, EDTA 2 mM, mean of two assays) | input cells bound expressed as a percentage of binding to murine ICAM-4Fc in the absence of peptides [3] | input cells bound expressed as a percentage of binding to murine ICAM-4Fc in the absence of peptides [4] | effect on adhesion of day 4 erythroblasts to ICAM-4 [5] | effect on adhesion between neutrophils and ICAM-4 [6]
O=C(O)CN(CCN(CC(=O)O)CC(=O)O)CC(=O)O [EDTA, reference compound] | 1% | 26% | 6% | 10% | 8% | 1% | – | –
aWssLahcl (AWSSLAHCL; not fully specified (some residues)) [aWssLahcl peptide] | – | 50% | – | – | – | – | inhibit adhesion | inhibit this interaction
rqgktlrgp (RQGKTLRGP; not fully specified (some residues); printed as rqgktlrgp) [rqgktlrgp peptide, reference compound] | 107% | 105% | – | – | 94% | – | had no effect | –
svpFWVrms (SVPFWVRMS; not fully specified (residues 1, 2, 3, 7, 8, 9)) [svpFWVrms peptide] | 61% | 64% | – | – | 67% | – | had no effect | –
tRwATSRit (TRWATSRIT; not fully specified (residues 1, 3, 8, 9)) [tRwATSRit peptide] | 58% | 58% | – | – | 58% | – | inhibit adhesion | inhibit this interaction

— patent US20060252116A1, “Icam-4 binding sites” (priority 2002, published 2006)
